Measurements published in ChEMBL document CHEMBL2331144, “Synthesis and anticancer activity of analogues of phenstatin, with a phenothiazine A-ring, as a new class of microtubule-targeting agents” (Bioorg Med Chem Lett, 2013).

Experiments:
[1] = tested on: NCI-H522; assay: Growth inhibition of human NCI-H522 cells after 48 hrs by sulforhodamine B assay; assay type: functional; conditions: NCI-H522, 48 h
[2] = tested on: COLO 205; assay: Growth inhibition of human COLO205 cells after 48 hrs by sulforhodamine B assay; assay type: functional; conditions: COLO 205, 48 h
[3] = tested on: NCI-H460; assay: Growth inhibition of human NCI-H460 cells after 48 hrs by sulforhodamine B assay; assay type: functional; conditions: NCI-H460, 48 h
[4] = tested on: NCI-H23; assay: Growth inhibition of human NCI-H23 cells after 48 hrs by sulforhodamine B assay; assay type: functional; conditions: NCI-H23, 48 h
[5] = tested on: HOP-62; assay: Growth inhibition of human HOP62 cells after 48 hrs by sulforhodamine B assay; assay type: functional; conditions: HOP-62, 48 h
[6] = tested on: HOP-92; assay: Growth inhibition of human HOP92 cells after 48 hrs by sulforhodamine B assay; assay type: functional; conditions: HOP-92, 48 h
[7] = Growth inhibition of human EKVX cells after 48 hrs by sulforhodamine B assay; assay type: functional
[8] = tested on: A549; assay: Growth inhibition of human A549/ATCC cells after 48 hrs by sulforhodamine B assay; assay type: functional; conditions: A549, 48 h
[9] = tested on: SR; assay: Growth inhibition of human SR cells after 48 hrs by sulforhodamine B assay; assay type: functional
[10] = tested on: RPMI-8226; assay: Growth inhibition of human RPMI8226 cells after 48 hrs by sulforhodamine B assay; assay type: functional; conditions: RPMI-8226, 48 h
[11] = tested on: MOLT-4; assay: Growth inhibition of human MOLT4 cells after 48 hrs by sulforhodamine B assay; assay type: functional; conditions: MOLT-4, 48 h
[12] = tested on: K562; assay: Growth inhibition of human K562 cells after 48 hrs by sulforhodamine B assay; assay type: functional; conditions: K562, 48 h
[13] = tested on: HL-60(TB); assay: Growth inhibition of human HL-60(TB) cells after 48 hrs by sulforhodamine B assay; assay type: functional; conditions: HL-60, 48 h
[14] = tested on: CCRF-CEM; assay: Growth inhibition of human CCRF-CEM cells after 48 hrs by sulforhodamine B assay; assay type: functional
[15] = Inhibition of sheep brain tubulin polymerization using DAPI by fluorimetry; set-up: species or system Ovis aries
[16] = organism: Ovis aries; assay: Inhibition of sheep brain tubulin polymerization at 100 uM using DAPI by fluorimetry
[17] = tested on: T47D; assay: Growth inhibition of human T47D cells after 48 hrs by sulforhodamine B assay; assay type: functional
[18] = tested on: MDA-MB-468; assay: Growth inhibition of human MDA-MB-468 cells after 48 hrs by sulforhodamine B assay; assay type: functional; conditions: MDA-MB-468, 48 h
[19] = tested on: BT-549; assay: Growth inhibition of human BT549 cells after 48 hrs by sulforhodamine B assay; assay type: functional; conditions: BT-549, 48 h
[20] = Growth inhibition of human Hs 578T cells after 48 hrs by sulforhodamine B assay; assay type: functional
[21] = tested on: MDA-MB-231; assay: Growth inhibition of human MDA-MB-231 cells after 48 hrs by sulforhodamine B assay; assay type: functional; conditions: MDA-MB-231, 48 h
[22] = tested on: MCF7; assay: Growth inhibition of human MCF7 cells after 48 hrs by sulforhodamine B assay; assay type: functional; conditions: MCF7, 48 h
[23] = tested on: SF-539; assay: Growth inhibition of human SF539 cells after 48 hrs by sulforhodamine B assay; assay type: functional; conditions: SF-539, 48 h
[24] = tested on: SNB-75; assay: Growth inhibition of human SNB75 cells after 48 hrs by sulforhodamine B assay; assay type: functional; conditions: SNB-75, 48 h
[25] = tested on: SF-295; assay: Growth inhibition of human SF295 cells after 48 hrs by sulforhodamine B assay; assay type: functional; conditions: SF-295, 48 h
[26] = tested on: SF-268; assay: Growth inhibition of human SF268 cells after 48 hrs by sulforhodamine B assay; assay type: functional; conditions: SF-268, 48 h
[27] = tested on: PC-3; assay: Growth inhibition of human PC3 cells after 48 hrs by sulforhodamine B assay; assay type: functional; conditions: PC-3, 48 h
[28] = tested on: TK-10; assay: Growth inhibition of human TK10 cells after 48 hrs by sulforhodamine B assay; assay type: functional; conditions: TK-10, 48 h
[29] = tested on: DU-145; assay: Growth inhibition of human DU145 cells after 48 hrs by sulforhodamine B assay; assay type: functional; conditions: DU-145, 48 h
[30] = tested on: ACHN; assay: Growth inhibition of human ACHN cells after 48 hrs by sulforhodamine B assay; assay type: functional
[31] = tested on: 786-0; assay: Growth inhibition of human 786-0 cells after 48 hrs by sulforhodamine B assay; assay type: functional; conditions: 786-0, 48 h
[32] = tested on: UO-31; assay: Growth inhibition of human UO31 cells after 48 hrs by sulforhodamine B assay; assay type: functional; conditions: UO-31, 48 h
[33] = tested on: RXF 393; assay: Growth inhibition of human RXF393 cells after 48 hrs by sulforhodamine B assay; assay type: functional; conditions: RXF 393, 48 h
[34] = tested on: SN12C; assay: Growth inhibition of human SN12C cells after 48 hrs by sulforhodamine B assay; assay type: functional
[35] = tested on: CAKI-1; assay: Growth inhibition of human CAKI-1 cells after 48 hrs by sulforhodamine B assay; assay type: functional; conditions: CAKI-1, 48 h
[36] = tested on: A498; assay: Growth inhibition of human A498 cells after 48 hrs by sulforhodamine B assay; assay type: functional; conditions: A498, 48 h
[37] = tested on: IGROV-1; assay: Growth inhibition of human IGROV1 cells after 48 hrs by sulforhodamine B assay; assay type: functional; conditions: IGROV-1, 48 h
[38] = tested on: SK-OV-3; assay: Growth inhibition of human SKOV3 cells after 48 hrs by sulforhodamine B assay; assay type: functional; conditions: SK-OV-3, 48 h
[39] = Growth inhibition of human NCI-ADR-RES cells after 48 hrs by sulforhodamine B assay; assay type: functional
[40] = tested on: OVCAR-8; assay: Growth inhibition of human OVCAR8 cells after 48 hrs by sulforhodamine B assay; assay type: functional; conditions: OVCAR-8, 48 h
[41] = tested on: OVCAR-5; assay: Growth inhibition of human OVCAR5 cells after 48 hrs by sulforhodamine B assay; assay type: functional; conditions: OVCAR-5, 48 h
[42] = tested on: OVCAR-4; assay: Growth inhibition of human OVCAR4 cells after 48 hrs by sulforhodamine B assay; assay type: functional; conditions: OVCAR-4, 48 h
[43] = tested on: OVCAR-3; assay: Growth inhibition of human OVCAR3 cells after 48 hrs by sulforhodamine B assay; assay type: functional; conditions: OVCAR-3, 48 h
[44] = tested on: SK-MEL-5; assay: Growth inhibition of human SK-MEL-5 cells after 48 hrs by sulforhodamine B assay; assay type: functional; conditions: SK-MEL-5, 48 h
[45] = tested on: UACC-257; assay: Growth inhibition of human UACC257 cells after 48 hrs by sulforhodamine B assay; assay type: functional; conditions: UACC-257, 48 h
[46] = tested on: Malme-3M; assay: Growth inhibition of human MALME-3M cells after 48 hrs by sulforhodamine B assay; assay type: functional
[47] = tested on: LOX IMVI; assay: Growth inhibition of human LOXIMVI cells after 48 hrs by sulforhodamine B assay; assay type: functional
[48] = tested on: UACC-62; assay: Growth inhibition of human UACC62 cells after 48 hrs by sulforhodamine B assay; assay type: functional; conditions: UACC-62, 48 h
[49] = tested on: SK-MEL-28; assay: Growth inhibition of human SK-MEL-28 cells after 48 hrs by sulforhodamine B assay; assay type: functional; conditions: SK-MEL-28, 48 h
[50] = tested on: SK-MEL-2; assay: Growth inhibition of human SK-MEL-2 cells after 48 hrs by sulforhodamine B assay; assay type: functional; conditions: SK-MEL-2, 48 h
[51] = tested on: MDA-MB-435; assay: Growth inhibition of human MDA-MB-435 cells after 48 hrs by sulforhodamine B assay; assay type: functional; conditions: MDA-MB-435, 48 h
[52] = tested on: M14; assay: Growth inhibition of human M14 cells after 48 hrs by sulforhodamine B assay; assay type: functional; conditions: M14, 48 h
[53] = tested on: SW-620; assay: Growth inhibition of human SW620 cells after 48 hrs by sulforhodamine B assay; assay type: functional; conditions: SW-620, 48 h
[54] = tested on: KM12; assay: Growth inhibition of human KM12 cells after 48 hrs by sulforhodamine B assay; assay type: functional; conditions: KM12, 48 h
[55] = tested on: HT-29; assay: Growth inhibition of human HT-29 cells after 48 hrs by sulforhodamine B assay; assay type: functional; conditions: HT-29, 48 h
[56] = tested on: HCT-116; assay: Growth inhibition of human HCT116 cells after 48 hrs by sulforhodamine B assay; assay type: functional; conditions: HCT-116, 48 h
[57] = tested on: HCT-15; assay: Growth inhibition of human HCT15 cells after 48 hrs by sulforhodamine B assay; assay type: functional; conditions: HCT-15, 48 h
[58] = Growth inhibition of human HCC2998 cells after 48 hrs by sulforhodamine B assay; assay type: functional; conditions: HCC 2998, 48 h

SMILES: COc1ccc(C(=O)N2c3ccccc3Sc3ccccc32)cc1F
- GI50 [1]: 102 nM
- GI50 [2]: 244 nM
- GI50 [3]: 372 nM
- GI50 [4]: 393 nM
- GI50 [5]: 539 nM
- GI50 [6]: 209 nM
- GI50 [7]: 964 nM
- GI50 [8]: 382 nM
- GI50 [9]: 271 nM
- GI50 [10]: 259 nM
- GI50 [11]: 442 nM
- GI50 [12]: 143 nM
- GI50 [13]: 267 nM
- GI50 [14]: 300 nM
- IC50 [15]: 9480 nM
- inhibition [16]: 95%
- GI50 [17]: 468 nM
- GI50 [18]: 249 nM
- GI50 [19]: 604 nM
- GI50 [20]: 285 nM
- GI50 [21]: 570 nM
- GI50 [22]: 316 nM
- GI50 [23]: 290 nM
- GI50 [24]: 222 nM
- GI50 [25]: 229 nM
- GI50 [26]: 819 nM
- GI50 [27]: 419 nM
- GI50 [28]: 586 nM
- GI50 [29]: 303 nM
- GI50 [30]: 1890 nM
- GI50 [31]: 590 nM
- GI50 [32]: 2220 nM
- GI50 [33]: 272 nM
- GI50 [34]: 760 nM
- GI50 [35]: 561 nM
- GI50 [36]: 211 nM
- GI50 [37]: 572 nM
- GI50 [38]: 322 nM
- GI50 [39]: 112 nM
- GI50 [40]: 384 nM
- GI50 [41]: 522 nM
- GI50 [42]: 6560 nM
- GI50 [43]: 312 nM
- GI50 [44]: 335 nM
- GI50 [45]: 671 nM
- GI50 [46]: 991 nM
- GI50 [47]: 590 nM
- GI50 [48]: 518 nM
- GI50 [49]: 543 nM
- GI50 [50]: 355 nM
- GI50 [51]: 35 nM
- GI50 [52]: 216 nM
- GI50 [53]: 358 nM
- GI50 [54]: 239 nM
- GI50 [55]: 251 nM
- GI50 [56]: 375 nM
- GI50 [57]: 405 nM
- GI50 [58]: 314 nM
